From ChEMBL document CHEMBL1201862, “PubChem BioAssay data set” (2004)
Calls of active or inactive are those of the source.

Key:
[1] = target: Beta-galactosidase (Escherichia coli, UniProt Q8VNN2); assay: Dose response counterscreen for EBI2 assay utilizing the enzyme, b-galactosidase.; type: functional
[2] = microbe, parasite or virus in culture; type: functional; settings: Mycobacterium tuberculosis
[3] = blockers of HIV-1 envelope-mediated cell-cell fusion – cherry-pick, dose response (AID 652057); type: functional, cell-based
[4] = viability loss in CEM21 cells – cell-based, CellTiter-Glo luminescence, cherry-picked, cytotoxicity control for viral fusion inhibitor project, dose response (AID 652042); type: functional;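 note: potency for signal decrease meaning cytotoxicity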
[5] = blockers of HIV-1 ZM109 envelope-driven cell-cell fusion – HeLa effector, CEM target cells, luciferase, cherry-pick, dose response (AID 652058); type: functional, cell-based;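 note: luciferase signal from HIV-1 Env mediated cell-cell fusion of effector and target cells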
[6] = off-target signal loss in HeLa-CEM21 co-culture – HeLa F-luc CTL cells, cherry-picked, counter-screen for HIV-1 Env fusion inhibitor project, dose response (AID 652040); type: functional, cell-based;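 note: potency for signal decrease marking cytotoxic or nonspecific inhibition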
[7] = HIV-1 AD8 envelope cell-cell fusion blockers – cherry-pick, dose response (AID 652062); type: functional, cell-based;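 note: luciferase signal from cell-cell fusion driven by HIV-1 clade B AD8 Env; potency is for inhibitors of fusion seen as a drop in luminescence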
[8] = target: T1, Leucine aminopeptidase (Plasmodium falciparum 3D7, UniProt Q8IL11); assay: P. falciparum M17LAP inhibitors, primary screen, biochemical, fluorogenic H-Leu-NHMec substrate, 1536-well (AID 1619); type: functional
T1 sequence (Q8IL11 whole entry): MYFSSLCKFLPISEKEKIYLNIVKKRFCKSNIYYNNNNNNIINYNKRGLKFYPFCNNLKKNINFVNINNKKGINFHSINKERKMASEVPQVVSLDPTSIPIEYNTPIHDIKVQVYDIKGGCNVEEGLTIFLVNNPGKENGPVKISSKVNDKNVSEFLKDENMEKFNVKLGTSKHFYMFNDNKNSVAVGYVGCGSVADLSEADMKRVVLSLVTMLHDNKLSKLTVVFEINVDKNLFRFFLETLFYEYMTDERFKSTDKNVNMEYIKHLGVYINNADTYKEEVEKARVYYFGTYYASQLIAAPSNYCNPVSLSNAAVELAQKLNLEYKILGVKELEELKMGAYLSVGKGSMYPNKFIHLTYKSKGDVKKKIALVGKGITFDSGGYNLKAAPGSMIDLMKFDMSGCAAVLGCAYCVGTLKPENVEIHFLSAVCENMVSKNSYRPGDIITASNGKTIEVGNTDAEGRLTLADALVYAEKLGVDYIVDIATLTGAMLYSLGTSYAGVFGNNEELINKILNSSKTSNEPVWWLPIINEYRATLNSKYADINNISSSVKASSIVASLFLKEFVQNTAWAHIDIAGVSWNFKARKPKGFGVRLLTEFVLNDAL

[9] = target: Large T antigen (Simian virus 40, UniProt P03070); type: functional, Betapolyomavirus macacae;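 note: Confirmatory-stage PubChem screen for compounds that inhibit SV40 T antigen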
[10] = target: T2, Caspase-3 (Homo sapiens, UniProt P42574); type: functional;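 note: Dose-response selectivity test against caspase-3 for candidate inhibitors of sentrin-specific proteases (SENPs)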
T2 sequence (P42574 whole entry): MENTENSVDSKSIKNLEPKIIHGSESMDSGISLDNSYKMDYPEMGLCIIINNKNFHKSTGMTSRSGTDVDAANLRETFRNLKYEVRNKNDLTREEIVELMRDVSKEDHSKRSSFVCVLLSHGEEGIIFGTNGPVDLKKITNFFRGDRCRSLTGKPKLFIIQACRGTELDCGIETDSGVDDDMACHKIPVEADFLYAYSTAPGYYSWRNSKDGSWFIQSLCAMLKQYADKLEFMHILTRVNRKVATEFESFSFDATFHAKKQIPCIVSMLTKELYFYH

[11] = target: T3, Sentrin-specific protease 7 (Homo sapiens, UniProt Q9BQF6); type: functional;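 note: Luminescence-based dose-response confirmation of ultra-high-throughput screening hits, measuring inhibition of SENP7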
T3 sequence (Q9BQF6 whole entry): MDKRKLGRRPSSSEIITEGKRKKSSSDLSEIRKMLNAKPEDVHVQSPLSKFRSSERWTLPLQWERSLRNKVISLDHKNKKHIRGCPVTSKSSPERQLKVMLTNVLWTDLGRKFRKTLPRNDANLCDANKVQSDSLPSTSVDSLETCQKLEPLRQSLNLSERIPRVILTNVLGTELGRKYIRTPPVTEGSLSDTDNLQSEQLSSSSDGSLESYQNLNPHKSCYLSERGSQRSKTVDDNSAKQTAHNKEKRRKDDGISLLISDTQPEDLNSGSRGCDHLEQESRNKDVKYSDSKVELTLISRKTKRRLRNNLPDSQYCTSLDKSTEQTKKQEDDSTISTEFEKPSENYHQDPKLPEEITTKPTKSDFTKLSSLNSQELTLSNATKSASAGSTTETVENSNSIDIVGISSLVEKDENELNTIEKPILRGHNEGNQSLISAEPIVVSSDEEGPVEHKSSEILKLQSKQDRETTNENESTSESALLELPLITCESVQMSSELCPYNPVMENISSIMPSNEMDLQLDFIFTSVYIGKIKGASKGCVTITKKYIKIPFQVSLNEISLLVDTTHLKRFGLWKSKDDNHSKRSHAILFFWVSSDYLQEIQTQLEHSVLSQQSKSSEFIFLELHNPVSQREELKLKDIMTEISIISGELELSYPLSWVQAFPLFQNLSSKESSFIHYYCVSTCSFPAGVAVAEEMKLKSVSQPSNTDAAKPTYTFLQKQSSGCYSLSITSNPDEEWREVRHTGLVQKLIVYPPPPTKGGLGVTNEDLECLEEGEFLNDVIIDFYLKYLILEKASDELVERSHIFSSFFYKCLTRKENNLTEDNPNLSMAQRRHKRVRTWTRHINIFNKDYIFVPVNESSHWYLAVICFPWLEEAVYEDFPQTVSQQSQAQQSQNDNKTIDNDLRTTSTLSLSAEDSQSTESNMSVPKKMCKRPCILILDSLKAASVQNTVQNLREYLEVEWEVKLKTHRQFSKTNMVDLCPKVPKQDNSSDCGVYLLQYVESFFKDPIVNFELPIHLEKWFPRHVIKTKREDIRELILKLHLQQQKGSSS

[12] = target: T4, Sentrin-specific protease 6 (Homo sapiens, UniProt Q9GZR1); type: functional;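 note: Luminescence-based dose-response confirmatory assay of SENP6 inhibition, following up an ultra-high-throughput screen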
T4 sequence (Q9GZR1 whole entry): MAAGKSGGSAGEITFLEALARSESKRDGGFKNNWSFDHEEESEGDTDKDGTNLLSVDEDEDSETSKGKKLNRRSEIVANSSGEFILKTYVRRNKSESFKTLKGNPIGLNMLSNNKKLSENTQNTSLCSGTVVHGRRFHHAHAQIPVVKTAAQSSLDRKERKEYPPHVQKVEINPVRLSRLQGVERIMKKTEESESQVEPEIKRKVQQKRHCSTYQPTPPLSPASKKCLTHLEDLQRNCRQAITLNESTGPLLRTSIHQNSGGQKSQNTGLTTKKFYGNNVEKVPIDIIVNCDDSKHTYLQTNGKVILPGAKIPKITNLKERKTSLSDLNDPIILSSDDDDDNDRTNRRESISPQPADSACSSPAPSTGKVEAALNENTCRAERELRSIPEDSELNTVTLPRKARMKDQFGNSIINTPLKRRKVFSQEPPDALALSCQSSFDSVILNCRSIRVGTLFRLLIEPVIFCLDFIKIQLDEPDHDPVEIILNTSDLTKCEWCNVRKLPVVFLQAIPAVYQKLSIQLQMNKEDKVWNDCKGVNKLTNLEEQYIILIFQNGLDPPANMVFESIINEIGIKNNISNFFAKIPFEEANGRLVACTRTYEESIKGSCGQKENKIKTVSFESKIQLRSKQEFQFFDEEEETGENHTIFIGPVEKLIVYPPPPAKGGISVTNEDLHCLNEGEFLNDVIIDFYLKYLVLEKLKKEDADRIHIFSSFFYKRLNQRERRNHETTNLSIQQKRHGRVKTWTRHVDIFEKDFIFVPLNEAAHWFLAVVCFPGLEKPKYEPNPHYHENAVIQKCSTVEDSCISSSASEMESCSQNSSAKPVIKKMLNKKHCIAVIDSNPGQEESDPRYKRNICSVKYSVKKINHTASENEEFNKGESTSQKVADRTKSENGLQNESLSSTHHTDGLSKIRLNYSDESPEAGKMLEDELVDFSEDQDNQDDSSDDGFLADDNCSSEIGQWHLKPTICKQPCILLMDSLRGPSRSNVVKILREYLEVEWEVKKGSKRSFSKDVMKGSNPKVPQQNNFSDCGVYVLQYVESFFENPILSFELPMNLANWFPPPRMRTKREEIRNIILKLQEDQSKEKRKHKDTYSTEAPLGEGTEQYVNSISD

[13] = target: T5, Sentrin-specific protease 8 (Homo sapiens, UniProt Q96LD8); type: functional;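 note: luminescence read-out of SENP8 inhibition, dose-response confirmation following an ultra-high-throughput screen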
T5 sequence (Q96LD8 whole entry): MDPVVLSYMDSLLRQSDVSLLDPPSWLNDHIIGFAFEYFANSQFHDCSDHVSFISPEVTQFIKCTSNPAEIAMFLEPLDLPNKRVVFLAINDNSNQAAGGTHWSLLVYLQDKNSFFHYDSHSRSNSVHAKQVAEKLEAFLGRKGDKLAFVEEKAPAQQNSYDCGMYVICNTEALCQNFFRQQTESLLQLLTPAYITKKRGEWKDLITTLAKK

[14] = system: P388/ADR; assay: cells; type: functional; settings: Mus musculus
[15] = system: SN12K1; assay: cells; type: functional; settings: Homo sapiens
[16] = system: P388; assay: cells; type: functional; settings: Mus musculus
[17] = activation of miR-122 Renilla sensor silencing – cell-based, Huh7 psiCHECK-miR122, Renilla luciferase, cherry-picked, dose response (AID 651956); type: functional;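 note: huh7 hepatoma cells stably carrying a psiCHECK-2 miR-122 sensor plasmid; renilla luciferase signal reporting endogenous miR-122 activity after 48 h compound exposure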
[18] = general mammalian cell viability loss – activator set, cherry-pick, cytotoxicity control for miR-122 modulator project, dose response (AID 720690); type: functional, cell-based;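 note: HEK293T human cells scored for general mammalian cytotoxicity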

Chain of Beta-galactosidase (Q8VNN2 whole entry): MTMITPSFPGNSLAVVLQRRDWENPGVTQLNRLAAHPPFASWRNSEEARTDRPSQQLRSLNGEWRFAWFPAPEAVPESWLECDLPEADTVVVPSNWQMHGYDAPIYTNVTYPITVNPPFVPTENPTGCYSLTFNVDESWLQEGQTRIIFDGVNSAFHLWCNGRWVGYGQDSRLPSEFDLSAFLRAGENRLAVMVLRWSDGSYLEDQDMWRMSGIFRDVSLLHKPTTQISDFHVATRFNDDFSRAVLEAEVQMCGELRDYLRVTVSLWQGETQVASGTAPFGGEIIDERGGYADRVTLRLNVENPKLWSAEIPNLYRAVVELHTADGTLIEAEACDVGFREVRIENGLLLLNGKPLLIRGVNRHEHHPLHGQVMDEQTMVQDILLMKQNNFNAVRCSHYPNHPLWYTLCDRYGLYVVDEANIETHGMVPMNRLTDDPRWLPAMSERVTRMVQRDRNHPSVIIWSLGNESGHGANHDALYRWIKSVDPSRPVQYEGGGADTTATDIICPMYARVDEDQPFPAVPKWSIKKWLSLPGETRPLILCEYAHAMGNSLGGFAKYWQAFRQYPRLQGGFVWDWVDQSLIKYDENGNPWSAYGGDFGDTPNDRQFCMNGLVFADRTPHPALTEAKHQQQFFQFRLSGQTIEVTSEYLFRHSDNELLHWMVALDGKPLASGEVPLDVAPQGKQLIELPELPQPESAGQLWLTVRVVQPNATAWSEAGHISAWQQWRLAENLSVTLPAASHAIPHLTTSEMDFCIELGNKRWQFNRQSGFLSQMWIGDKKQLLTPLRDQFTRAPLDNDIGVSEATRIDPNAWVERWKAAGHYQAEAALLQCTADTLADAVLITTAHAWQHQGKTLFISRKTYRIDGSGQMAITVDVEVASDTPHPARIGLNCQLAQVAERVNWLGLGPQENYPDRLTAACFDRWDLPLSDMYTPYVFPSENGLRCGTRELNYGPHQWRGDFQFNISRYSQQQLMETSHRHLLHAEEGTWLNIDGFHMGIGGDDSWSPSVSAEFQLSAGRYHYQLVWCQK
Chain of Large T antigen (P03070 whole entry): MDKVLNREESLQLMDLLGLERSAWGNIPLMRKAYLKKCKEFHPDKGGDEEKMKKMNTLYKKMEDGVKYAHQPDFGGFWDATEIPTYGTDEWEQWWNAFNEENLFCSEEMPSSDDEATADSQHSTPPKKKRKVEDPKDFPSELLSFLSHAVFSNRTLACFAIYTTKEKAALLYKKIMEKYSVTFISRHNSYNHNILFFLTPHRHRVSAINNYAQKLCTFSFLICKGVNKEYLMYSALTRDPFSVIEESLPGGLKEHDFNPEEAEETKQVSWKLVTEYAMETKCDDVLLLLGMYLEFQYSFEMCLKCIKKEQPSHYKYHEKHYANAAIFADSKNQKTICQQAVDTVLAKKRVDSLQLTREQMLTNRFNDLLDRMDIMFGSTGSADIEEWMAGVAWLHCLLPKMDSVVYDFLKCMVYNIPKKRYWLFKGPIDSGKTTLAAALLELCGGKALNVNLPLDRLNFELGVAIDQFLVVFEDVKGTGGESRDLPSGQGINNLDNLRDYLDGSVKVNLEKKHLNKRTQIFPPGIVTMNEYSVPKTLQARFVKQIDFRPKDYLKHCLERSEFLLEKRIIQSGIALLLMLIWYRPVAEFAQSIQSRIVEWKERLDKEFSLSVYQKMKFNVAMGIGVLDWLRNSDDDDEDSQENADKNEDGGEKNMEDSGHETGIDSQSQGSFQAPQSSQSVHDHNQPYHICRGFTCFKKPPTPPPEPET

Structure (SMILES): CCOc1ccc(NC(S)=Nc2ccc(C)c([N+](=O)[O-])c2)cc1
- IC50 [1]: 131 µM (inactive)

Structure (SMILES): Cc1ccccc1-c1nc(CN2CCC(C(=O)NCCC3=CCCCC3)CC2)c(C)o1
- CC50 [2]: > 40 µM (active)
- AC50 [3]: 4.21 µM (active)
- AC50 [4]: 25.6 µM (active)
- AC50 [5]: 6.35 µM (active)
- AC50 [6]: 7.7 µM (active)
- AC50 [7]: 7.96 µM (active)

Structure (SMILES): Cc1[nH]c2ccc(C(=O)N3CCN(c4ccc(F)cc4)CC3)cc2c1C
- IC50 [1]: > 80 µM (inactive)

Structure (SMILES): CCN(CC)c1ccc(NC(=O)COC(=O)c2cccs2)cc1
- IC50 [8]: 15.7 µM (active)
- IC50 [9]: 15.2 µM (active)
- IC50 [10]: 16.2 µM (active)
- IC50 [11]: 11.7 µM (active)
- IC50 [12]: 98.2 µM (active)
- IC50 [13]: > 100 µM (inactive)

Structure (SMILES): CN1CCN(C(=O)/C=C/c2ccc(Cl)c(Cl)c2)CC1
- IC50 [1]: > 80 µM (inactive)

Structure (SMILES): CC(=O)Nc1ccc(C(=O)COC(=O)C2CCCCC2)c(F)c1
- IC50 [10]: 17.5 µM (active)
- IC50 [11]: 6.32 µM (active)
- IC50 [12]: 20.4 µM (active)
- IC50 [13]: 65.6 µM (active)

Structure (SMILES): Nc1ccc(/C=C/c2ccc3ncccc3c2)cc1
- IC50 [10]: 22.8 µM (active)
- IC50 [11]: 10.4 µM (active)
- IC50 [12]: 9.32 µM (active)
- IC50 [13]: > 100 µM (inactive)

Structure (SMILES): CC1=C(C(=O)Nc2ccc(Cl)c(C(=O)OC(C)C)c2)SCCO1
- GI50 [14]: 29.2 µM (inactive)
- GI50 [15]: 58.6 µM (inactive)
- GI50 [16]: 23.2 µM (inactive)

Structure (SMILES): CCC1(O)CC(OC2CC(N(C)C)C(OC3CC4OC5CC(=O)C(C)OC5OC4C(C)O3)C(C)O2)c2c(cc3c(c2O)C(=O)c2c(O)ccc(O)c2C3=O)C1C(=O)OC (configuration not stated)
- GI50 [14]: 0.000703 µM (active)
- GI50 [15]: 0.00741 µM (active)
- GI50 [16]: 0.000368 µM (active)

Structure (SMILES): CN(C)C(CN)CC1=C(CC(CN)N(C)C)CCC1 (configuration not stated)
- GI50 [14]: > 100 µM (inactive)
- GI50 [15]: > 100 µM (inactive)
- GI50 [16]: > 100 µM (inactive)

Structure (SMILES): COc1cc2c(cc1OC)C(Cc1c3ccccc3cc3ccccc13)N(C)CC2 (configuration not stated)
- GI50 [14]: 15.8 µM (inactive)
- GI50 [15]: 15.5 µM (inactive)
- GI50 [16]: 18.7 µM (inactive)

Structure (SMILES): CCOC(=O)/C(O)=C1\C(=O)N(C)C(=O)C1c1ccc(OC)c(OC)c1 (configuration not stated)
- GI50 [14]: > 31.6 µM (inactive)
- GI50 [15]: > 100 µM (inactive)
- GI50 [16]: > 100 µM (inactive)

Structure (SMILES): Cc1cc(C)n(-c2ccc(C(=O)N3CCN(S(=O)(=O)c4ccc(Br)cc4Cl)CC3)cc2)n1
- IC50 [1]: > 80 µM (inactive)

Structure (SMILES): C[C@@H]1CCCCO[C@@H](CN(C)CC2CCCCC2)[C@H](C)CN([C@@H](C)CO)C(=O)c2cc(NC(=O)Nc3cccc4ccccc34)ccc2O1
- AC50 [17]: 5.03 µM (active)
- AC50 [18]: 47.3 µM (active)

Structure (SMILES): CNC[C@@H]1Oc2cc(C#Cc3cccc(OC)c3)ccc2S(=O)(=O)N([C@@H](C)CO)C[C@@H]1C
- AC50 [17]: 9.73 µM (active)
- AC50 [18]: 14.9 µM (active)

Structure (SMILES): C[C@H](CO)N1C[C@H](C)[C@H](CN(C)S(=O)(=O)c2cccc(F)c2)Oc2ncc(C#CC3CCCCC3)cc2C1=O
- AC50 [17]: 6.43 µM (active)
- AC50 [18]: 32.3 µM (active)

Structure (SMILES): COc1ccc2c3c([nH]c2c1)[C@@H](CO)N(C(=O)Nc1cccc(F)c1)CC31CCN(S(=O)(=O)c2ccccc2)CC1
- AC50 [3]: 23.2 µM (active)
- AC50 [4]: 21 µM (active)
